Test results from patent US4487718A, “Peptides” (Kowa Company, Ltd., priority 1983, dated 1984).

Key:
[1] = target: T1, activated blood coagulation factor XIII (Homo sapiens, UniProt P00488); assay: Crosslinking capacity of the peptide (Ia) to fibrin (125I-labeled peptide, fibrin clot radioactivity); assay type: biochemical
T1 sequence (P00488 39-732 limits assumed): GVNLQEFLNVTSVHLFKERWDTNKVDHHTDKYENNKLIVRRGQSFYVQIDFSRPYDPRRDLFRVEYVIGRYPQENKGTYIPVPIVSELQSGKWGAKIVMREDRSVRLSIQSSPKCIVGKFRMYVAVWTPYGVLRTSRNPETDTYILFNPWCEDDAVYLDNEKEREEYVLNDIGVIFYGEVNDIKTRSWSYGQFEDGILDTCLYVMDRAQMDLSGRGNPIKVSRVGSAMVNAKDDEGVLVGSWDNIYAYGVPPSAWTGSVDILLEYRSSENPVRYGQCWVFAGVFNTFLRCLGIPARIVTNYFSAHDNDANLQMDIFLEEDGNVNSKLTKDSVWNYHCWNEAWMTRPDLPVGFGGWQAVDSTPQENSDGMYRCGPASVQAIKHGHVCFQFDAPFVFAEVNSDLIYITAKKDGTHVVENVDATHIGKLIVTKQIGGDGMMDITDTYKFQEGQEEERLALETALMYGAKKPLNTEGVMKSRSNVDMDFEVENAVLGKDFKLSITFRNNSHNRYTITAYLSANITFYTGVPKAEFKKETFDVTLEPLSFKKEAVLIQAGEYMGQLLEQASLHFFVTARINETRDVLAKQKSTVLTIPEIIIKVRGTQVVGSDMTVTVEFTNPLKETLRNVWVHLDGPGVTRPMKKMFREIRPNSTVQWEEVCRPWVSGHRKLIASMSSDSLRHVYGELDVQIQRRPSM
Method: To a mixed solution of 20 μl of the peptide (Ia) labeled with a radioactive isotope ^125 I, 20 μl of fibrinogen (30 mg/ml, 88 μM, containing 2 or 10 μ/ml of the blood coagulation factor XIII) and 140 μl of a Tris buffer, was added 20 μl of a mixed solution of thrombin (3.3 u/ml) and calcium chloride (50 mM). The resulting mixture was then incubated at 37° C.
The clotting sample was frozen instantaneously at each time with dry ice/acetone to terminate the reaction and then lyophilized. The resulting fibrin film was washed three times, each for 5 minutes, with 200 μl of 50 mM EDTA containing 1% of BSA (brovine serum albmin). The thus washed fibrin film was measured in its radioactivity to determine the amount of the peptide coupled with the fibrin [see "Biochim, Biophys, Acta", 661, 280-286, (1981)].

[2] = target: T2, crosslinking of α2 -PI to fibrin (Homo sapiens, UniProt P00488); assay: Inhibitory effect against the crosslinking of α2 -PI to fibrin; assay type: biochemical; details: peptide 0-50 mM solution, α2 -PI 10 μM solution; FIG. 2
T2 sequence (P00488 39-732 limits assumed): T1 sequence (P00488 39-732 limits assumed)
Method: Twenty microliters of a mixed solution of thrombin (3.3 u/ml) and calcium chloride (50 mM) was added to a mixed solution consisting of 20 μl of fibrinogen (30 mg/ml, 88 μM, containing 10 u/ml of the blood coagulation factor XIII), 20 μl of α2 -PI (0.67 mg/ml, 10 μM), 20 μl of a ^125 I-labeled peptide (0-50 mM) and 120 μl of a Tris buffer. The amount of the peptide bonded to the resulting fibrin clot was then determined in the same manner as in Experiment 1.
On the other hand, the amount of α2 -PI coupled with a fibrin clot was also determined using ^125 I-labeled α2 -PI and an unlabeled peptide.

fibrin clot [3] = assay: Fibrinolysis-accelerating effect: release of 125I from fibrin clots of platelet-rich plasma; set-up: species or system human; details: peptide 0-500 μM, FIG. 3
Method: Healthy human blood to which sodium citrate had been added, was subjected to centrifugal separation to prepare platelet-rich plasma. A trace amount of ^125 I-labeled fibrinogen was added to and mixed with the platelet-rich plasma. 250 mM solutions of calcium chloride which contained the peptide (Ia) at different levels (0-5 mM) were poured, each in a volume of 20 μl, into glass test tubes. Each test tube was added with 180 μl of the above plasma and then allowed to stand at 37° C. A fibrin clot was formed in several minutes. Clot retraction started about 15 minutes later and was completed in about 30 minutes.
Thereafter, 800 μl of platelet-poor plasma which contained the peptide (Ia) at different levels (0-500 μM) and 1 u of Hirudin was added to each of the test tubes. The test tube was then incubated at 37° C. The contents were sampled periodically to measure ^125 I released into the supernatant.

fibrin clot [4] = assay: Synergistic effects in combination with tissue plasminogen activator (TPA), added before or after clot formation; set-up: species or system human; details: with melanoma-derived TPA, compared with no activator, FIGS. 4 and 5
Method: Healthy human blood to which sodium citrate had been added, was subjected to centrifugal separation to prepare platelet-rich plasma. A trace amount of ^125 I-labeled fibrinogen was added to and mixed with the platelet-rich plasma. 250 mM solutions of calcium chloride which contained the peptide (Ia) at different levels (0-5 mM) and 1 u/ml of a melanoma-derived tissue plasminogen activator (TPA), were poured 20 μl by 20 μl into glass test tubes, each of which was then added with 180 μl of the above plasma. A fibrin clot was formed in several minutes. Clot retraction started about 15 minutes later and was completed in about 30 minutes.
Thereafter, each test tube was added with 800 μl of platelet-poor plasma which contained the peptide (Ia) at different levels (0-500 μM) and 1 u of Hirudin. The test tube was then incubated at 37° C. The contents were sampled periodically to measure ^125 I released into the supernatant.
Healthy human blood to which sodium citrate had been added, was subjected to centrifugal separation to prepare platelet-rich plasma. A trace amount of ^125 I-labeled fibrinogen was added to and mixed with the platelet-rich plasma. 250 mM solutions of calcium chloride were poured 20 μl by 20 μl into glass test tubes, each of which was then added with 180 μl of the above plasma. A fibrin clot was formed in several minutes. […]

L-Asn-L-Gln-L-Glu-L-Gln-L-Val-L-Ser-L-Pro-L-Leu-L-Thr-L-Gly-L-Leu-L-Lys-NH [peptide (Ia)]
amount of the peptide coupled with the fibrin at equilibrium ([1]; 125I-labeled peptide, fibrinogen containing factor XIII, thrombin, calcium chloride, 37° C., FIG. 1): about 40%
crosslinking velocity to fibrin ([1]; compared with α2 -PI, FIG. 1): substantially the same as that of α2 -PI
glutamine substrate for the activated blood coagulation factor XIII ([1]; conclusion from Experiment 1): good glutamine substrate
inhibition of the crosslinking of α2 -PI to the fibrin [2]: inhibits competitively
fibrinolysis-accelerating effect (dissolution of fibrin clot) (fibrin clot [3]; human platelet-rich plasma clot, 37° C., compared with absence of peptide): has a fibrinolysis-accelerating effect
dependence of the fibrinolysis-accelerating effect on the amount added (fibrin clot [3]): proportional to the amounts of the peptide (Ia) added
fibrinolysis-accelerating effect in combination with a plasminogen activator (fibrin clot [4]): synergistically enhanced fibrinolysis-accelerating effect
